Results: patent US20240327756A1, “METAL COMPLEXES, AND D[…] CONTAINING SAME” (HENKEL AG & CO. KGAA, priority 2021, published 2024)

Biological target: bovine serum albumin (BSA) (Bos taurus, UniProt P02769)
Settings: BSA 0.02 mM, complex 2 mM, 60° C., pH 9, 24 h incubation; reference without complex = 1.0
Procedure: The hydrolysis of protein dirt was investigated using degradation of bovine serum albumin (BSA). […] The incubated material was then examined with the known method of SDS-PAGE with regard to the intensity of the band to be assigned to BSA. BSA incubated under the same conditions without the addition of complexes served as reference. The intensity values given in the following table are relative values based on the intensity of the band of the reference at t=24 h.

Chain of bovine serum albumin (BSA) (P02769 25-607): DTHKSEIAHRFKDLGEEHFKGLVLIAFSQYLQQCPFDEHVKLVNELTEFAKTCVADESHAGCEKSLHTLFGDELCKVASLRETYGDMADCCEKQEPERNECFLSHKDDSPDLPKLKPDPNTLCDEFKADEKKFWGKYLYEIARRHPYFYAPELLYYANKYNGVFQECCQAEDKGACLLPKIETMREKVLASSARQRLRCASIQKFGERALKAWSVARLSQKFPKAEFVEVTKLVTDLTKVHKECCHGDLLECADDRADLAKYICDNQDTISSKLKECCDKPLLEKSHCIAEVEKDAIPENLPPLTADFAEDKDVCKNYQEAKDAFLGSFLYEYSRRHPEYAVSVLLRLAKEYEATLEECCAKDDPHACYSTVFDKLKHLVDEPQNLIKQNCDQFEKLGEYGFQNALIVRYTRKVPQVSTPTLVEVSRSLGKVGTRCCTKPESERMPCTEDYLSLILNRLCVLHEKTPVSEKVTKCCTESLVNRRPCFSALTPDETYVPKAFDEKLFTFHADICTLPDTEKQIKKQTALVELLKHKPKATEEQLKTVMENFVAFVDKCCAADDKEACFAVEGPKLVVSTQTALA

Sc (III) Complex of 1,7-dioxa-4,10-diazacyclododecane-4,10-di(methyl(phenol)) [complex P1]
Intensity (of the SDS-PAGE band assigned to BSA, relative to the reference band at t=24 h): 0.84
